Reference: patent US20180200257A1, “METHODS FOR THE TREATMENT OF INFLAMMATORY DISORDERS” (Galapagos NV, priority 2015, published 2018)

System: subjects with moderately to severely active RA who have an inadequate response to methotrexate (MTX)
Test: Study 1 (add-on to MTX) - ACR responses (ACR20/50/70)
Type: in vivo, human
From the text: The terms “ACR20”, “ACR50” and “ACR70” as used herein are scores which indicate how much a patient's rheumatoid arthritis has improved according to criteria set out by the American College of Rheumatology (ACR). The ACR score represents a percentage. An ACR20 score means that a person's RA has improved by 20%, an ACR50 score means it has improved by 50%, and an ACR70 score means it has improved by 70%. Specifically, to qualify for an ACR20 score, a person with RA must have at least 20% fewer tender joints and at least 20% fewer swollen joints. In addition the patient must show a 20% improvement in at least three of the following five areas: the person's overall (global) assessment of his or her own RA, the physician's global assessment of the person's RA, the person's assessment of his or her own pain, the person's assessment of his or her own physical functioning, and the results of an erythrocyte sedimentation rate or C-reactive protein (CRP) blood test (both of which test for inflammation). ACR50 and ACR70 scores use the same criteria but require 50% and 70% improvement, respectively, (Felson et al., 1993). In the data presented herein the CRP blood test is used.
Double-blind, placebo-controlled add on study in subjects with moderately to severely active RA who have an inadequate response to methotrexate (MTX) (oral or parenteral).
595 subjects randomized to one of 6 dose regimens of Compound 1 (dosed as [Compound 1:HCl:3H2O]) (3 dose levels administered either once or twice daily) or placebo on top of each subject's stable dose of MTX.
Compound 1 (dosed as [Compound 1:HCl:3H2O]) is dosed for twelve weeks once daily (q.d.) (50 mg, 100 mg or 200 mg) or twice daily (b.i.d.) (25 mg, 50 mg or 100 mg); or placebo.
At Week 12, the subjects on placebo who have not achieved 20% improvement in swollen joint count (SJC66) and tender joint count (TJC68) are re-randomized automatically to receive Compound 1 (dosed as a [Compound 1:HCl:3H2O]) either at 100 mg q.d. or 50 mg b.i.d. doses in a blinded fashion; subjects on 50 mg q.d. who have not achieved 20% improvement in SJC66 and TJC68 will be assigned to 100 mg q.d. and subjects on 25 mg b.i.d. that have not achieved a 20% improvement in SJC66 and TJC68 will be assigned to 50 mg b.i.d. Subjects who switch treatment at week 12 are handled as if they discontinued at week 12 for the purpose of statistical analysis, whereas subjects in the other groups will maintain their randomized treatment until Week 24.
The American College of Rheumatology (ACR) composite score, which evaluates clinical improvement relative to an initial assessment, is a commonly accepted efficacy end point for clinical trials in patients with rheumatoid arthritis. The ACR score correspond to a percentage improvement in pre-set parameters, and therefore measures the evolution of the disease in a patient. For example, ACR20 denotes at least 20% improvement in tender and swollen joint counts and in three of the following end points: global assessment by the patient, global assessment by the doctor, C reactive protein (CRP), patient's pain Visual Analogue Scale and Health Assessment Questionnaire Score. The number of swollen joints, ESR and CRP correlate with radiographic progression of joint damage, whereas tender joint counts, as well as global assessments by doctors and patients, and patients' reports of pain, are sensitive to change in clinical outcomes. Physical function, as assessed by the Health Assessment Questionnaire Score, is a potent predictor of the risk of disability in rheumatoid arthritis (Felson and American College of Rheumatology Committee to Reevaluate Improvement Criteria, 2007; Felson et al., 1993).
In particular, the list of parameters used to assess ACR score can be found in the Table XCVI below and the results of the ACR responses at week 12 via either NRI or LOCF are shown in the tables below. The Hommel-corrected p-value for the pairwise comparisons of each group with placebo is shown. […]

[1] = 2 × 50 mg b.i.d., week 12, 12 weeks results
[2] = 2 × 50 mg b.i.d., week 12, 24 weeks results
[3] = 2 × 50 mg b.i.d., week 16, 24 weeks results
[4] = 2 × 50 mg b.i.d., week 20, 24 weeks results
[5] = 2 × 50 mg b.i.d., week 24, 24 weeks results
[6] = 2 × 50 mg b.i.d., at week 1, 12 weeks results
[7] = 2 × 50 mg b.i.d., at week 1, 24 weeks results
[8] = 2 × 100 mg b.i.d., week 2, 12 weeks results
[9] = 2 × 100 mg b.i.d., week 2, 24 weeks results
[10] = 2 × 100 mg b.i.d., week 4, 12 weeks results
[11] = 2 × 100 mg b.i.d., week 4, 24 weeks results
[12] = 2 × 100 mg b.i.d., week 8, 12 weeks results
[13] = 2 × 100 mg b.i.d., week 8, 24 weeks results
[14] = 2 × 100 mg b.i.d., week 12, 12 weeks results
[15] = 2 × 100 mg b.i.d., week 12, 24 weeks results
[16] = 2 × 100 mg b.i.d., week 16, 24 weeks results
[17] = 2 × 100 mg b.i.d., week 20, 24 weeks results
[18] = 2 × 100 mg b.i.d., week 24, 24 weeks results
[19] = 2 × 100 mg b.i.d., at week 1, 12 weeks results
[20] = 2 × 100 mg b.i.d., at week 1, 24 weeks results

With `O=C(Nc1nc2cccc(-c3ccc(CN4CCS(=O)(=O)CC4)cc3)n2n1)C1CC1` [Compound 1, cyclopropanecarboxylic acid {5-[4-(1,1-dioxo-thiomorpholin-4-ylmethyl)-phenyl]-[1,2,4]triazolo[1,5-a]pyridin-2-yl}-amide] the “ACR70 (NRI)” value (2 × 50 mg b.i.d., week 8, 24 weeks results) was 14.1%, the “ACR20 (LOCF)” value [1] was 58.8% and the “ACR20 (NRI)” value [1] was 58.8%. For the same molecule, the “ACR50 (LOCF)” value [1] was 34.1%, the “ACR50 (NRI)” value [1] was 34.1% and the “ACR70 (LOCF)” value [1] was 18.8%. The “ACR70 (NRI)” value [1] was 18.8%, the “ACR20 (LOCF)” value [2] was 60.0% and the “ACR20 (NRI)” value [2] was 58.8%. For the same molecule, the “ACR50 (LOCF)” value [2] was 34.1%, the “ACR50 (NRI)” value [2] was 34.1% and the “ACR70 (LOCF)” value [2] was 18.8%. For the same molecule, the “ACR70 (NRI)” value [2] was 18.8%, the “ACR20 (LOCF)” value [3] was 67.1% and the “ACR20 (NRI)” value [3] was 64.7%. For the same molecule, the “ACR50 (LOCF)” value [3] was 32.9%, the “ACR70 (LOCF)” value [3] was 21.2% and the “ACR20 (LOCF)” value [4] was 68.2%. For the same molecule, the “ACR20 (NRI)” value [4] was 65.9%, the “ACR50 (LOCF)” value [4] was 41.2% and the “ACR70 (LOCF)” value [4] was 22.4%. The “ACR20 (LOCF)” value [5] was 67.1%, the “ACR20 (NRI)” value [5] was 60.0% and the “ACR50 (LOCF)” value [5] was 38.8%. The “ACR70 (LOCF)” value [5] was 24.7%, the “ACR20 (LOCF)” value [6] was 22.4% and the “ACR20 (NRI)” value [6] was 22.4%. The “ACR50 (LOCF)” value [6] was 7.1%, the “ACR50 (NRI)” value [6] was 7.1% and the “ACR70 (LOCF)” value [6] was 2.4%. The “ACR70 (NRI)” value [6] was 2.4%, the “ACR20 (LOCF)” value [7] was 22.4% and the “ACR20 (NRI)” value [7] was 22.4%. The “ACR50 (LOCF)” value [7] was 7.1%, the “ACR50 (NRI)” value [7] was 7.1% and the “ACR70 (LOCF)” value [7] was 2.4%. For the same molecule, the “ACR70 (NRI)” value [7] was 2.4%, the “ACR20 (LOCF)” value [8] was 53.6% and the “ACR20 (NRI)” value [8] was 54.8%. For the same molecule, the “ACR50 (LOCF)” value [8] was 22.6%, the “ACR50 (NRI)” value [8] was 21.4% and the “ACR70 (LOCF)” value [8] was 4.8%. The “ACR70 (NRI)” value [8] was 3.6%, the “ACR20 (LOCF)” value [9] was 56.0% and the “ACR20 (NRI)” value [9] was 54.8%. The “ACR50 (LOCF)” value [9] was 22.6%, the “ACR50 (NRI)” value [9] was 21.4% and the “ACR70 (LOCF)” value [9] was 4.8%. For the same molecule, the “ACR70 (NRI)” value [9] was 3.6%, the “ACR20 (LOCF)” value [10] was 67.9% and the “ACR20 (NRI)” value [10] was 69.0%. For the same molecule, the “ACR50 (LOCF)” value [10] was 34.5%, the “ACR50 (NRI)” value [10] was 35.7% and the “ACR70 (LOCF)” value [10] was 9.5%. The “ACR70 (NRI)” value [10] was 10.7%, the “ACR20 (LOCF)” value [11] was 67.9% and the “ACR20 (NRI)” value [11] was 67.9%. For the same molecule, the “ACR50 (LOCF)” value [11] was 34.5%, the “ACR50 (NRI)” value [11] was 34.5% and the “ACR70 (LOCF)” value [11] was 10.7%. For the same molecule, the “ACR70 (NRI)” value [11] was 10.7%, the “ACR20 (LOCF)” value [12] was 75.0% and the “ACR20 (NRI)” value [12] was 75.0%. For the same molecule, the “ACR50 (LOCF)” value [12] was 45.2%, the “ACR50 (NRI)” value [12] was 45.2% and the “ACR70 (LOCF)” value [12] was 26.2%. For the same molecule, the “ACR70 (NRI)” value [12] was 27.4%, the “ACR20 (LOCF)” value [13] was 75.0% and the “ACR20 (NRI)” value [13] was 75.0%. For the same molecule, the “ACR50 (LOCF)” value [13] was 45.2%, the “ACR50 (NRI)” value [13] was 45.2% and the “ACR70 (LOCF)” value [13] was 27.4%. The “ACR70 (NRI)” value [13] was 27.4%, the “ACR20 (LOCF)” value [14] was 79.8% and the “ACR20 (NRI)” value [14] was 79.8%. The “ACR50 (LOCF)” value [14] was 56.0%, the “ACR50 (NRI)” value [14] was 54.8% and the “ACR70 (LOCF)” value [14] was 29.8%. For the same molecule, the “ACR70 (NRI)” value [14] was 31.0%, the “ACR20 (LOCF)” value [15] was 81.0% and the “ACR20 (NRI)” value [15] was 79.8). The “ACR50 (LOCF)” value [15] was 57.1%, the “ACR50 (NRI)” value [15] was 54.8% and the “ACR70 (LOCF)” value [15] was 31.0%. For the same molecule, the “ACR70 (NRI)” value [15] was 31.0%, the “ACR20 (LOCF)” value [16] was 84.5% and the “ACR20 (NRI)” value [16] was 82.1%. The “ACR50 (LOCF)” value [16] was 64.3%, the “ACR70 (LOCF)” value [16] was 36.9% and the “ACR20 (LOCF)” value [17] was 88.1%. The “ACR20 (NRI)” value [17] was 84.5%, the “ACR50 (LOCF)” value [17] was 61.9% and the “ACR70 (LOCF)” value [17] was 36.9%. The “ACR20 (LOCF)” value [18] was 86.9%, the “ACR20 (NRI)” value [18] was 79.8% and the “ACR50 (LOCF)” value [18] was 61.9%. For the same molecule, the “ACR70 (LOCF)” value [18] was 42.9%, the “ACR20 (LOCF)” value [19] was 33.3% and the “ACR20 (NRI)” value [19] was 34.5%. For the same molecule, the “ACR50 (LOCF)” value [19] was 7.1%, the “ACR50 (NRI)” value [19] was 7.1% and the “ACR70 (LOCF)” value [19] was 4.8%. For the same molecule, the “ACR70 (NRI)” value [19] was 4.8%, the “ACR20 (LOCF)” value [20] was 34.5% and the “ACR20 (NRI)” value [20] was 34.5%. For the same molecule, the “ACR50 (LOCF)” value [20] was 7.1%, the “ACR50 (NRI)” value [20] was 7.1% and the “ACR70 (LOCF)” value [20] was 4.8%. For the same molecule, the “ACR70 (NRI)” value [20] was 4.8%.
